Where two headings read alike, the source gives them in different places.

A word on the inhibition: it is the change of the read-out against control, counted positive when it falls.

The experiment concerns the target T1, fusion protein Tel/PDGF-R (PDGF-Rβ kinase domain) in HEK cells (Homo sapiens, UniProt P09619).
T1 construct: the transmembrane and intracellular part of the PDGF-Rβ receptor; N-terminal part of the Tel transcription factor (ETV6); expressed in transfected cells; host or cells: HEK cells (transient transfection); the other entry of the earlier key: ETV6 (P41212, Transcription factor ETV6)
As to the kind of experiment: Ex vivo activity: plasma of orally treated mice tested on PDGF-R autophosphorylation in HEK Tel/PDGF-R cells (ELISA). Also on record: species or system female Balb/c mice. The note with it: HEK293, mouse, po, 30 mg/kg po, read-out: % inhibition of autophosphorylation of PDGFR tyrosine kinase in HEK cells. The procedure: Ex vivo activity of the compounds of the invention was measured. These compounds are thus administered orally to female Balb/c mice at a dose of 10, 30 or 100 mg/kg in suspension or in solution in a vehicle such as methylcellulose/Tween and the inhibition of the tyrosine kinase activity is measured in vitro in a cell test, using plasma collected at 15 minutes, 1 hour and 4 hours.
1) Protocol for Administration of the Products to the Mice
The products are prepared in a mortar with 0.5% Tween 80 and 0.6% methylcellulose qs final volume. Depending on the case, preparations of different vehicles may be used: water, mixture of labrasol solutol 5% glucose-water. The suspended or dissolved products are administered by gavage (10 ml/kg) to female Balb/c mice 8 to 15 weeks old.
The animals are then collected at the time given by the protocol (15 min, 1 hour, 4 hours, 16 hours).
The animals are anaesthetized by intraperitoneal injection (10 ml/kg) of a ketamine (0.1 g/kg)-xylazine (20 mg/kg) mixture. […] The blood sample is collected from the vein or the artery using a dry syringe and needle. The blood is immediately transferred into heparin lithium tubes (BD microtainer). Centrifugation for 3 minutes at 12 000 rpm allows recovery of the plasma, on which the biochemical test may be performed after storage by freezing at −20° C.
2) Preparation of the HEK Tel/PDGF-R Cells and Measurement of the Phosphorylation of PDGF-R
In order to detect the ex vivo activity of the products using the mouse plasmas, the HEK cells are transiently transfected beforehand with an expression vector coding for the fusion protein Tel/PDGF-R (fusion protein described previously). After 24 hours of transfection, the cells are deprived of serum overnight and then incubated for 30 minutes with the animal plasmas treated with the products of the invention. The cells are then lysed in RIPA buffer, and detection of the phosphorylation of PDGF-Rβ is then performed via the ELISA technique, using a commercial kit (R&D Systems, DYC1767). The results are expressed as a percentage of inhibition of the autophosphorylation.
In this test of measurement of the ex vivo activity, the effect of the compounds of the invention is quantified by the percentage of inhibition of phosphorylation of the kinase domain of the PDGF-Rβ receptor in HEK cells, induced by the inhibitory activity of the product present in the plasma of the treated animals, as described in the following table: […]
In general terms: ELISA stands for enzyme-linked immunosorbent assay.

T1 sequence (P09619 with tags, fused parts or gaps): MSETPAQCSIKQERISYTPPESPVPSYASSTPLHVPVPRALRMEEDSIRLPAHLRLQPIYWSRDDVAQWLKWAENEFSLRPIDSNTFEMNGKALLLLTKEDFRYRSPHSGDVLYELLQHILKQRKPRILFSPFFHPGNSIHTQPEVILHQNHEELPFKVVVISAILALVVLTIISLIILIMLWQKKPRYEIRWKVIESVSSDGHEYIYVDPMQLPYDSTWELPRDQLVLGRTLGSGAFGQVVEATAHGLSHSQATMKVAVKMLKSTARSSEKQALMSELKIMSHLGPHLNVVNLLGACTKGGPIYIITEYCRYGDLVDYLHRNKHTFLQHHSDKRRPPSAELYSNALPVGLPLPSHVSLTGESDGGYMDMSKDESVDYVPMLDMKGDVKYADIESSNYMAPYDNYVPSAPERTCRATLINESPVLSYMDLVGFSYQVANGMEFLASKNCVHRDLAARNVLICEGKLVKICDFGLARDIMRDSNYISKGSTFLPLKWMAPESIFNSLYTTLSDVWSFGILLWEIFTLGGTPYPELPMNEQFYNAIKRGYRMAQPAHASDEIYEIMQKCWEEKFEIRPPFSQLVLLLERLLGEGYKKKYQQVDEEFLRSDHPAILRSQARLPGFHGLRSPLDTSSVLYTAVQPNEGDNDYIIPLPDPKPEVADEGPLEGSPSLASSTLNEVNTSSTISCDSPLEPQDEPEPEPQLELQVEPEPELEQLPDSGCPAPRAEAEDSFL

Take `CCn1c(N)c(C(=O)NC)c(=O)c2ccc(-c3ccc(CC(=O)NCC4COCCN4C4CC4)cc3)nc21` (stereo not drawn) [compound 33, 2-amino-7-[4-(2-{[(4-cyclopropylmorpholin-3-yl)methyl]amino}-2-oxoethyl)phenyl]-1-ethyl-N-methyl-4-oxo-1,4-dihydro-1,8-naphthyridine-3-carboxamide]: the inhibition at 30 mg/kg is, setting by setting: (plasma collected at 15 min) 80%; (plasma collected at 1 h) 82%; (plasma collected at 4 h) 75%.

With `CCN1CC(F)(F)C[C@H]1CNC(=O)Cc1ccc(-c2ccc3c(=O)c(C(=O)NC)c(N)n(CC)c3n2)cc1` [compound 24, 2-amino-1-ethyl-7-{4-[2-({[(2S)-1-ethyl-4,4-difluoropyrrolidin-2-yl]methyl}-amino)-2-oxoethyl]phenyl}-N-methyl-4-oxo-1,4-dihydro-1,8-naphthyridine-3-carboxamide], the inhibition at 30 mg/kg runs as follows: (plasma collected at 15 min) 85%; (plasma collected at 1 h) 57%; (plasma collected at 4 h) 74%.
